# Measurements as given in ChEMBL document CHEMBL1132807, “Synthesis of a heterocyclic aza-enediyne and its DNA-cleavage properties” (Bioorg Med Chem Lett, 2000).
# Assay: Concentration required for cleaving the supercoiled DNA at pH 8
# Type: functional
structure (smiles),measurement,value
C[n+]1c(C#Cc2ccccc2)n(CC#Cc2ccccc2)c2ccccc21,Concentration,100 µM
